Assay results taken from ChEMBL document CHEMBL1151785, “Oleanolic acid and its derivatives: new inhibitor of protein tyrosine phosphatase 1B with cellular activities” (Bioorg Med Chem, 2008).

Columns and labels:
[1] = target: Receptor-type tyrosine-protein phosphatase F (Homo sapiens, UniProt P10586); test: Inhibition of human recombinant LAR
[2] = target: Receptor-type tyrosine-protein phosphatase alpha (Homo sapiens, UniProt P18433); test: Inhibition of human recombinant PTPalpha
[3] = target: Receptor-type tyrosine-protein phosphatase epsilon (Homo sapiens, UniProt P23469); test: Inhibition of human recombinant PTPepsilon
[4] = target: T1, Tyrosine-protein phosphatase non-receptor type 1 (Homo sapiens, UniProt P18031); test: Inhibition of PTP1B by pNPP assay
T1 sequence (P18031 whole entry): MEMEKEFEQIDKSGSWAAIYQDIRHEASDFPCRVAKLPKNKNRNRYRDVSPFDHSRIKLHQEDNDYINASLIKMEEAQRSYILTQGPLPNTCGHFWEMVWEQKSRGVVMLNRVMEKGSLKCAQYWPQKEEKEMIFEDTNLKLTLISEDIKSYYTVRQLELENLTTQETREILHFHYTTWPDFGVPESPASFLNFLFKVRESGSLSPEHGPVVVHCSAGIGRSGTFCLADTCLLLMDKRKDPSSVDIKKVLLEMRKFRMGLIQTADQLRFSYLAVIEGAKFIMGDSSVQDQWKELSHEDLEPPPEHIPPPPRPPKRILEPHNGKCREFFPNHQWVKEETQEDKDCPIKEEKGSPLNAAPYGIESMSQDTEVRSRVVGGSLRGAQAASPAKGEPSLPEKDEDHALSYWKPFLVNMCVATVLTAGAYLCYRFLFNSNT

[5] = target: Tyrosine-protein phosphatase non-receptor type 6 (Homo sapiens, UniProt P29350); test: Inhibition of human recombinant SHP1
[6] = target: T2, Tyrosine-protein phosphatase non-receptor type 2 (Homo sapiens, UniProt P17706); test: Inhibition of TCPTP by pNPP assay
T2 sequence (P17706 whole entry): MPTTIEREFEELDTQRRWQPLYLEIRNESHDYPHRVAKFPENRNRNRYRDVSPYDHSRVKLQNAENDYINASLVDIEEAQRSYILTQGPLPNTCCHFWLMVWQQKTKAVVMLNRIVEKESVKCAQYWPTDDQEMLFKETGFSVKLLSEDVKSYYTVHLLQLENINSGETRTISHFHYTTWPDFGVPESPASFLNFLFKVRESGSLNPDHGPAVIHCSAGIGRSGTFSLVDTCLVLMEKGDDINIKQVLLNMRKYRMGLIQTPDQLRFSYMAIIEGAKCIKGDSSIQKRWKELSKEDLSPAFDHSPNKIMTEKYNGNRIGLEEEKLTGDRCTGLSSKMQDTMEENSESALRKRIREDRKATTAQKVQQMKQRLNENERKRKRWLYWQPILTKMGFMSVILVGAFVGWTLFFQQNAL

[7] = Selectivity for PTP1B to human recombinant SHP1

Tyrosine-protein phosphatase non-receptor type 6, sequence (P29350 whole entry): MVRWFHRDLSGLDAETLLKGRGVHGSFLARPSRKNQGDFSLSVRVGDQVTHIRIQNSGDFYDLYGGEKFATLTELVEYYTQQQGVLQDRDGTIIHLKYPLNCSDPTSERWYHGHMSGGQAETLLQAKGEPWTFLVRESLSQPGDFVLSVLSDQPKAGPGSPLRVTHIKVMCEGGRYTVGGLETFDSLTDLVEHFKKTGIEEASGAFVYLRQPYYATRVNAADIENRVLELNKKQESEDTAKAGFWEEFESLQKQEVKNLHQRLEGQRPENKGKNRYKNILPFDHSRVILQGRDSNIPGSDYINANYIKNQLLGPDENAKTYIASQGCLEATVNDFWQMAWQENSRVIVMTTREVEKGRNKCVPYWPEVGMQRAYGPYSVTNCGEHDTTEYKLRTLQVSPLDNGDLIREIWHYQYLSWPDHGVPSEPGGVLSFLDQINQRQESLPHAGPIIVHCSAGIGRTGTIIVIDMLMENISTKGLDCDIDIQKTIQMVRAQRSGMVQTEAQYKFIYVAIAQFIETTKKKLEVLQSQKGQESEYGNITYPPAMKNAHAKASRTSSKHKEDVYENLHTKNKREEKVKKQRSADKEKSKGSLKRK
Receptor-type tyrosine-protein phosphatase epsilon, sequence (P23469 whole entry): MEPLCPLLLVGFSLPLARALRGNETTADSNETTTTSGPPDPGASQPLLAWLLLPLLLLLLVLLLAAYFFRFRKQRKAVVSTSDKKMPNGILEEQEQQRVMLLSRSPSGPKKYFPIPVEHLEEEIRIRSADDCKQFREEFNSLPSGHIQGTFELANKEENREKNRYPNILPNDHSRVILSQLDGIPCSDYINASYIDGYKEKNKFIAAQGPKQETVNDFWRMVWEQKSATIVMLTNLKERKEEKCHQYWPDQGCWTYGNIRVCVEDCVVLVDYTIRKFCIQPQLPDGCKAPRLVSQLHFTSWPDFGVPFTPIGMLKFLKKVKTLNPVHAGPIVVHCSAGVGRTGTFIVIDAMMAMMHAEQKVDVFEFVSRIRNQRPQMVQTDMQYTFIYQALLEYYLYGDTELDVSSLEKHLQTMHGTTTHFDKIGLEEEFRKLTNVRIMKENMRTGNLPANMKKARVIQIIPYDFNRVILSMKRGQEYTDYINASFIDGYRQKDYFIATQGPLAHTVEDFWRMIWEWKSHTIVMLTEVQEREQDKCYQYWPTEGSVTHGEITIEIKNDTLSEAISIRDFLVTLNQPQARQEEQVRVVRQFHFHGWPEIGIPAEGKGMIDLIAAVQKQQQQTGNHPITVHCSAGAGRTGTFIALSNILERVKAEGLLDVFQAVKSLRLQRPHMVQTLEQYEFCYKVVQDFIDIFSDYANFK
Receptor-type tyrosine-protein phosphatase F, sequence (P10586 whole entry): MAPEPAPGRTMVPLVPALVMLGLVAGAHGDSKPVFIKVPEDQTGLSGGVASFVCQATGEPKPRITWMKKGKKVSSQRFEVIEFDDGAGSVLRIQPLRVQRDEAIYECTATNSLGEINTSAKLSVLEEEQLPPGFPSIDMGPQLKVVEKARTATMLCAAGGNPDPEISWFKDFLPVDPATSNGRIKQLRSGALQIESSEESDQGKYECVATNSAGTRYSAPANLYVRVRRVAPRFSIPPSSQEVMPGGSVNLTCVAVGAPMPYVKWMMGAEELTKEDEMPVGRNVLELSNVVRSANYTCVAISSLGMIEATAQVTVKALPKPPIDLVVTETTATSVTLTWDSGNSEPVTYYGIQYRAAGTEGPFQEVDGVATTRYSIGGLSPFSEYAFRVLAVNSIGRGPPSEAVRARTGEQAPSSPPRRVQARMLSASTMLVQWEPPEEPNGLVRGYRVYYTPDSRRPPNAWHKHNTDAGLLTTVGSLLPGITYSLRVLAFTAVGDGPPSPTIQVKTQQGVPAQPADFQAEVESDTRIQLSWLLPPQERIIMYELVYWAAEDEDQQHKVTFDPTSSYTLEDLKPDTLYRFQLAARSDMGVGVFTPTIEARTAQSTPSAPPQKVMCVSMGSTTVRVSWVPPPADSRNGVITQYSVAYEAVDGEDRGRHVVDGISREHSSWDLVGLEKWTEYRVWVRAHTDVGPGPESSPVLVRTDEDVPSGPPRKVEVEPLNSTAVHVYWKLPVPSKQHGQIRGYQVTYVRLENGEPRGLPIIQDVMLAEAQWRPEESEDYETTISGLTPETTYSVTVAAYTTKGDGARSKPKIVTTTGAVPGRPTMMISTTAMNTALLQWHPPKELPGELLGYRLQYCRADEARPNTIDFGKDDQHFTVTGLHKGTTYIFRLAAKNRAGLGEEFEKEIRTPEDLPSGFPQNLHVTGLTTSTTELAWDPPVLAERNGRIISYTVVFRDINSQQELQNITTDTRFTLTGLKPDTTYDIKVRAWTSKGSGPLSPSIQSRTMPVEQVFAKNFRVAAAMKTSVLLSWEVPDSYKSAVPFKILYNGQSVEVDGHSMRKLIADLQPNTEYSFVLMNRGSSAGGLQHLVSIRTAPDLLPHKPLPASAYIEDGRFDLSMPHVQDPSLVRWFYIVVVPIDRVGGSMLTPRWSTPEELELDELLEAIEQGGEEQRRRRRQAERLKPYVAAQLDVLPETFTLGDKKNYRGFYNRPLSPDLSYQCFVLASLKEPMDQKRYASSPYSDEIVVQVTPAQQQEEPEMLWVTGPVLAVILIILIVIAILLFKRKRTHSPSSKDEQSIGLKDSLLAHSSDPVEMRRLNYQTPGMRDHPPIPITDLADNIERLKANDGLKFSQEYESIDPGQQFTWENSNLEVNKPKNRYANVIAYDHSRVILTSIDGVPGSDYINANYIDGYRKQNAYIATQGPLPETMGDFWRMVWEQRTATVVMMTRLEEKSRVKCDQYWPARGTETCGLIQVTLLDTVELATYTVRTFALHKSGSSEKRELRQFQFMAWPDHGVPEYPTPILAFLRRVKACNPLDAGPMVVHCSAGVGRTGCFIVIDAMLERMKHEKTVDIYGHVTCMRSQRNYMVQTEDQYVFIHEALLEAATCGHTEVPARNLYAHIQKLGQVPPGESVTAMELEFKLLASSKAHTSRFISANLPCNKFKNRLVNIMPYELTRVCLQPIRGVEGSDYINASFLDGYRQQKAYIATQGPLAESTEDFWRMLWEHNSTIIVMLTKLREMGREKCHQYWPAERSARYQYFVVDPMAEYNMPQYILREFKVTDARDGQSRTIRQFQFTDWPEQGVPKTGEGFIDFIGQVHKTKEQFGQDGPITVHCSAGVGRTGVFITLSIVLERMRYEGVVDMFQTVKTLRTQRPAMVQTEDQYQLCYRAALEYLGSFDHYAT
Receptor-type tyrosine-protein phosphatase alpha, sequence (P18433 whole entry): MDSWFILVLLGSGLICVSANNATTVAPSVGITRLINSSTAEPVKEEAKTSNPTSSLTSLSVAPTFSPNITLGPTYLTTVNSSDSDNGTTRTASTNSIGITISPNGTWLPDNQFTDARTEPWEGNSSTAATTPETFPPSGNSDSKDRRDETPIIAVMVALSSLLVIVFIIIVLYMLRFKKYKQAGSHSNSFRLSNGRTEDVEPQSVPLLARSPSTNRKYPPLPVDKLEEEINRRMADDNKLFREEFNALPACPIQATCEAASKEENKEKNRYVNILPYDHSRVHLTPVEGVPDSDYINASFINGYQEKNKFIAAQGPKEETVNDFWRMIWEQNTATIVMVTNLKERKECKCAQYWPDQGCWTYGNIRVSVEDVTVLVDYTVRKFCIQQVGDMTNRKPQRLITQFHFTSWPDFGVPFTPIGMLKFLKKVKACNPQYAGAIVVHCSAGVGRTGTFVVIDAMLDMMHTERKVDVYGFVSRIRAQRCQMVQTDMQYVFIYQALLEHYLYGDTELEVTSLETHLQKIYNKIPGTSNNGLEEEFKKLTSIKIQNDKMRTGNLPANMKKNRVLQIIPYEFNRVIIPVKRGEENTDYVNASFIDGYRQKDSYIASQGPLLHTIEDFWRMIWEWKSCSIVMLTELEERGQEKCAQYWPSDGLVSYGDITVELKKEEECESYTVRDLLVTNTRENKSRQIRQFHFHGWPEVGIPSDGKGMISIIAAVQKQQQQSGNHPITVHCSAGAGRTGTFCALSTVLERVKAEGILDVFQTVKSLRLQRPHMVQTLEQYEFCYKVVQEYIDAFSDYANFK

Structure (SMILES)	IC50 [1]	IC50 [2]	IC50 [3]	IC50 [4]	IC50 [5]	IC50 [6]	Ratio [7]
CC1(C)CC[C@]2(C(=O)O)CC[C@]3(C)C(=CC[C@@H]4[C@@]5(C)CC[C@H](O)C(C)(C)[C@@H]5CC[C@]43C)[C@@H]2C1 [OLEANOLIC_ACID]	> 40000 nM	> 40000 nM	> 40000 nM	–	–	–	–
CC1(C)CC[C@]2(C(=O)N[C@@H](Cc3ccccc3)C(=O)O)CC[C@]3(C)C(=CC[C@@H]4[C@@]5(C)CC[C@H](O)C(C)(C)[C@@H]5CC[C@]43C)[C@@H]2C1	–	–	–	3310 nM	12600 nM	–	–
C[C@H]1[C@H](C)CC[C@]2(C(=O)O)CC[C@]3(C)C(=CC[C@@H]4[C@@]5(C)C[C@@H](O)[C@H](O)C(C)(C)[C@@H]5CC[C@]43C)[C@H]12 [COROSOLIC ACID]	> 40000 nM	> 40000 nM	> 40000 nM	5490 nM	24600 nM	11300 nM	2
CC1(C)CC[C@]2(C(=O)O)CC[C@]3(C)C(=CC[C@@H]4[C@@]5(C)CC[C@H](OCc6ccc(C(=O)O)cc6)C(C)(C)[C@@H]5CC[C@]43C)[C@@H]2C1	> 40000 nM	> 40000 nM	> 40000 nM	540 nM	4050 nM	470 nM	2
C[C@H]1[C@H](C)CC[C@]2(C(=O)O)CC[C@]3(C)C(=CC[C@@H]4[C@@]5(C)CC[C@H](O)C(C)(C)[C@@H]5CC[C@]43C)[C@H]12 [URSOLIC ACID]	> 40000 nM	> 40000 nM	> 40000 nM	–	25800 nM	3330 nM	–
CC1(C)CC[C@]2(CCCCC(=O)O)CC[C@]3(C)C(=CC[C@@H]4[C@@]5(C)CC[C@H](O)C(C)(C)[C@@H]5CC[C@]43C)[C@@H]2C1	> 40000 nM	> 40000 nM	> 40000 nM	1330 nM	5200 nM	1110 nM	2
CC1(C)CC[C@]2(CCCCCCCCCCCCC(=O)O)CC[C@]3(C)C(=CC[C@@H]4[C@@]5(C)CC[C@H](O)C(C)(C)[C@@H]5CC[C@]43C)[C@@H]2C1	–	–	–	590 nM	–	530 nM	–
COc1ccc(CC(NC(=O)CCCC[C@]23CCC(C)(C)C[C@H]2C2=CC[C@@H]4[C@@]5(C)CC[C@H](O)C(C)(C)[C@@H]5CC[C@@]4(C)[C@]2(C)CC3)C(=O)O)cc1 (some centres undefined)	–	–	–	600 nM	–	550 nM	–
CC1(C)CC[C@]2(CCCCC(=O)NC(Cc3cccc(Cl)c3)C(=O)O)CC[C@]3(C)C(=CC[C@@H]4[C@@]5(C)CC[C@H](O)C(C)(C)[C@@H]5CC[C@]43C)[C@@H]2C1 (some centres undefined)	–	–	–	510 nM	–	520 nM	–
C=C1CC[C@]2(C)[C@H]3CC=C4[C@@H]5CC(C)(C)CC[C@]5(C(=O)O)CC[C@@]4(C)[C@]3(C)CC[C@H]2C1(C)C	–	–	–	2850 nM	–	2530 nM	–
CC1(C)CC[C@]2(C)CC[C@]3(C)[C@H](CC[C@@H]4[C@@]5(C)CC[C@H](O)C(C)(C)[C@@H]5CC[C@]43C)[C@@H]2C1	–	–	–	> 20000 nM	–	> 20000 nM	–
Cc1ccc(CC(NC(=O)CCCC[C@]23CCC(C)(C)C[C@H]2C2=CC[C@@H]4[C@@]5(C)CC[C@H](O)C(C)(C)[C@@H]5CC[C@@]4(C)[C@]2(C)CC3)C(=O)O)cc1 (some centres undefined)	–	–	–	650 nM	–	660 nM	–
CC1(C)CC[C@]2(CCCCC(=O)NC(Cc3ccc4c(c3)OCO4)C(=O)O)CC[C@]3(C)C(=CC[C@@H]4[C@@]5(C)CC[C@H](O)C(C)(C)[C@@H]5CC[C@]43C)[C@@H]2C1 (some centres undefined)	> 40000 nM	> 40000 nM	> 40000 nM	440 nM	710 nM	600 nM	2
CC1(C)CC[C@]2(CCCCC(=O)NC(Cc3ccccc3Cl)C(=O)O)CC[C@]3(C)C(=CC[C@@H]4[C@@]5(C)CC[C@H](O)C(C)(C)[C@@H]5CC[C@]43C)[C@@H]2C1 (some centres undefined)	–	–	–	560 nM	–	550 nM	–
CC1(C)CC[C@]2(CCCCC(=O)NC(Cc3ccc(Cl)cc3)C(=O)O)CC[C@]3(C)C(=CC[C@@H]4[C@@]5(C)CC[C@H](O)C(C)(C)[C@@H]5CC[C@]43C)[C@@H]2C1 (some centres undefined)	–	–	–	610 nM	–	480 nM	–
CCOC(=O)C(=O)O[C@H]1CC[C@]2(C)[C@H]3CC=C4[C@@H]5CC(C)(C)CC[C@]5(C(=O)O)CC[C@@]4(C)[C@]3(C)CC[C@H]2C1(C)C	–	–	–	2890 nM	–	3660 nM	–
CC1(C)CC[C@]2(C(=O)O)CC[C@]3(C)C(=CC[C@@H]4[C@@]5(C)CC[C@H](OCc6ccccc6C(=O)O)C(C)(C)[C@@H]5CC[C@]43C)[C@@H]2C1	–	–	–	2720 nM	–	2220 nM	–
C[C@H]1[C@H](C)CC[C@]2(C)CC[C@]3(C)C(=CC[C@@H]4[C@@]5(C)CC[C@@H](O)[C@](C)(C(=O)O)[C@@H]5CC[C@]43C)[C@H]12 [BOSWELLIC ACID]	–	–	–	> 20000 nM	–	> 20000 nM	–

Structure (SMILES)	IC50 [1]	IC50 [2]	IC50 [3]	IC50 [4]	IC50 [5]	IC50 [6]	Ratio [7]
CC1(C)CC[C@]2(CCC(=O)O)CC[C@]3(C)C(=CC[C@@H]4[C@@]5(C)CC[C@H](O)C(C)(C)[C@@H]5CC[C@]43C)[C@@H]2C1	> 40000 nM	> 40000 nM	> 40000 nM	2100 nM	27400 nM	2770 nM	2
CC1(C)CC[C@]2(C(=O)O)CC[C@]3(C)C(=CC[C@@H]4[C@@]5(C)CC[C@H](OC(=O)C(=O)O)C(C)(C)[C@@H]5CC[C@]43C)[C@@H]2C1	–	–	–	2860 nM	–	4550 nM	–
CC1(C)CC[C@]2(CCCCC(=O)NC(Cc3ccc([N+](=O)[O-])cc3)C(=O)O)CC[C@]3(C)C(=CC[C@@H]4[C@@]5(C)CC[C@H](O)C(C)(C)[C@@H]5CC[C@]43C)[C@@H]2C1 (some centres undefined)	–	–	–	450 nM	–	360 nM	–
COc1cccc(CC(NC(=O)CCCC[C@]23CCC(C)(C)C[C@H]2C2=CC[C@@H]4[C@@]5(C)CC[C@H](O)C(C)(C)[C@@H]5CC[C@@]4(C)[C@]2(C)CC3)C(=O)O)c1 (some centres undefined)	–	–	–	520 nM	–	520 nM	–
COc1ccc(CC(NC(=O)CCCC[C@]23CCC(C)(C)C[C@H]2C2=CC[C@@H]4[C@@]5(C)CC[C@H](O)C(C)(C)[C@@H]5CC[C@@]4(C)[C@]2(C)CC3)C(=O)O)cc1OC (some centres undefined)	–	–	–	820 nM	–	700 nM	–
CC1(C)CC[C@]2(CCCCCCCCC(=O)O)CC[C@]3(C)C(=CC[C@@H]4[C@@]5(C)CC[C@H](O)C(C)(C)[C@@H]5CC[C@]43C)[C@@H]2C1	–	–	–	780 nM	–	790 nM	–
CC1(C)CC[C@]2(CCCCCCC(=O)O)CC[C@]3(C)C(=CC[C@@H]4[C@@]5(C)CC[C@H](O)C(C)(C)[C@@H]5CC[C@]43C)[C@@H]2C1	–	–	–	880 nM	–	850 nM	–
C[C@H]1[C@H](C)CC[C@]2(C(=O)O)CC[C@]3(C)C(=CC[C@@H]4[C@@]5(C)C[C@@H](O)[C@H](O)[C@@](C)(CO)[C@@H]5[C@H](O)C[C@]43C)[C@H]12 [MADECASSIC ACID]	–	–	–	12400 nM	–	> 20000 nM	–
CC1(C)CC[C@]2(C(=O)O)CC[C@]3(C)C(=CC[C@@H]4[C@@]5(C)CCC(=O)C(C)(C)[C@@H]5CC[C@]43C)[C@@H]2C1 [OLEANONIC ACID]	–	–	–	5320 nM	–	5630 nM	–
COc1cc(CC(NC(=O)CCCC[C@]23CCC(C)(C)C[C@H]2C2=CC[C@@H]4[C@@]5(C)CC[C@H](O)C(C)(C)[C@@H]5CC[C@@]4(C)[C@]2(C)CC3)C(=O)O)cc(OC)c1 (some centres undefined)	–	–	–	630 nM	–	850 nM	–
C[C@H]1[C@H](C)CC[C@]2(C)CC[C@]3(C)C(=CC(=O)[C@@H]4[C@@]5(C)CC[C@@H](O)[C@](C)(C(=O)O)[C@@H]5CC[C@]43C)[C@H]12 [11-KETO BOSWELLIC ACID]	–	–	–	8040 nM	–	9450 nM	–
O=C(O)C(=O)c1ccc(OCc2ccc(COc3ccc(C(=O)C(=O)O)cc3)cc2)cc1	–	–	–	5730 nM	–	5350 nM	–
CC1(C)CC[C@]2(C(=O)O)CC[C@]3(C)C(=CC[C@@H]4[C@@]5(C)CC[C@H](OCc6ccccc6)C(C)(C)[C@@H]5CC[C@]43C)[C@@H]2C1	–	–	–	2670 nM	–	2750 nM	–
CSCC[C@H](NC(=O)CCCC[C@]12CCC(C)(C)C[C@H]1C1=CC[C@@H]3[C@@]4(C)CC[C@H](O)C(C)(C)[C@@H]4CC[C@@]3(C)[C@]1(C)CC2)C(=O)O	–	–	–	550 nM	–	750 nM	–
COc1ccccc1CC(NC(=O)CCCC[C@]12CCC(C)(C)C[C@H]1C1=CC[C@@H]3[C@@]4(C)CC[C@H](O)C(C)(C)[C@@H]4CC[C@@]3(C)[C@]1(C)CC2)C(=O)O (some centres undefined)	–	–	–	530 nM	–	450 nM	–
CC1(C)CC[C@]2(C(=O)O)CC[C@]3(C)C(=CC[C@@H]4[C@@]5(C)CCCC(C)(C)[C@@H]5CC[C@]43C)[C@@H]2C1	–	–	–	2610 nM	–	3000 nM	–
C[C@H]1[C@H](C)CC[C@]2(C(=O)O)CC[C@]3(C)C(=CC[C@@H]4[C@@]5(C)C[C@@H](O)[C@H](O)[C@@](C)(CO)[C@@H]5CC[C@]43C)[C@H]12 [ASIATIC ACID]	–	–	–	> 20000 nM	–	> 20000 nM	–
